Test results: patent US20180099931A1 (AbbVie S.à.r.l., priority 2016, published 2018)
Like-named read-outs stand apart in the source and are kept apart here.

Target: T1, F508delCFTR (Homo sapiens, UniProt P13569, DEL508-508)
T1 construct: expressed in transfected cells; host or cells: CFBE41o- human lung-derived epithelial cells (CFBE4lo-F508delCFTR-HRP), doxycycline-inducible
Test: Cell Surface Expression-Horse Radish Peroxidase (CSE-HRP) Assay;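 on Maximum % activity (with co-corrector): co-corrector and positive control are both the same reference corrector at 2 µM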;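 on Maximum % activity (without co-corrector): percent of the 2 µM on-plate positive control corrector response above DMSO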
Format: cell-based
Settings: for Emax / Maximum % activity (with co-corrector): maximum at any tested concentration, normalized to on-plate positive control; for Emax: read-out: Maximum % activity (without co-corrector)
Description: Cell Surface Expression-Horse Radish Peroxidase (CSE-HRP) Assay;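 on Maximum % activity (with co-corrector): co-corrector and positive control are both the same reference corrector at 2 µM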;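 on Maximum % activity (without co-corrector): percent of the 2 µM on-plate positive control corrector response above DMSO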
The development was achieved by expressing the F508delCFTR mutation along with a horseradish peroxidase (HRP) in the fourth exofacial loop, and then measuring the HRP activity using luminescence readout from these cells, CFBE4lo-F508delCFTR-HRP, that were incubated overnight with the test corrector compounds, either without or with the co-corrector. […] The test compounds were then added either without or with a co-corrector at the required concentrations and further incubated for 18-24 hours at 33° C. The highest concentration tested was 20 μM with an 8-point concentration response curve using a 3-fold dilution in both the test compound without or with the co-corrector. Three replicate plates were run to determine one EC50. All plates contained negative controls (dimethyl sulfoxide, DMSO) and positive control (2 μM of 3-[(2R,4R)-4-({[1-(2,2-difluoro-1,3-benzodioxol-5-yl)cyclopropyl]carbonyl}amino)-7-methoxy-3,4-dihydro-2H-chromen-2-yl]benzoic acid) as well as on-plate concentration response of the positive control. […] The raw counts from the experiment were analyzed using Accelrys® Assay Explorer v3.3.
1−[3*SDPositive Control+3*SDNegative Control/Absolute(MeanPositive Control−MeanNegative Control)]
wherein “SD” is standard deviation.
The % activity measured at each of the 8 test concentrations of the test compound added either without or with a co-corrector (2 μM of 3-[(2R,4R)-4-({[1-(2,2-difluoro-1,3-benzodioxol-5-yl)cyclopropyl]carbonyl}amino)-7-methoxy-3,4-dihydro-2H-chromen-2-yl]benzoic acid) was normalized to the on-plate positive control using the following formulae:
% activity(Test compound without co-corrector)=[(test compound without co-corrector response−DMSO response)/(positive control response−DMSO response)]*100
% activity(Test compound with co-corrector)=[(test compound with co-corrector response−DMSO response)/(positive control response−DMSO response)]*100
The maximum % activity achieved for the test compound either without or with a co-corrector at any tested concentration is presented in Table 4 along with the respective EC50's calculated using the following general sigmoidal curve with variable Hill slope equation (described as Model 42 in the Accelrys® Assay Explorer v3.3 software):
General sigmoidal curve with concentration, response, top, bottom, EC50 and Hill slope. This model describes a sigmoidal curve with an adjustable baseline, a. The equation can be used to fit curves where response is either increasing or decreasing with respect to the independent variable, “x”.
“x” is a concentration of drug under test. “y” is the response. “a” is the maximum response, and “d” is the minimum response “c” is the inflection point (EC50) for the curve. That is, “y” is halfway between the lower and upper asymptotes when x=c. “b” is the slope-factor or Hill coefficient. The sign of b is positive when the response increases with increasing dose and is negative when the response decreases with increasing dose (inhibition).

[1] = test compound without co-corrector
[2] = test compound without co-corrector, read-out: EC50 (without co-corrector)
[3] = with co-corrector (2 μM of 3-[(2R,4R)-4-({[1-(2,2-difluoro-1,3-benzodioxol-5-yl)cyclopropyl]carbonyl}amino)-7-methoxy-3,4-dihydro-2H-chromen-2-yl]benzoic acid), read-out: EC50 (with co-corrector)
[4] = CSE-HRP, test compound without co-corrector, read-out: EC50 (without co-corrector)
[5] = CSE-HRP, with co-corrector (2 μM of 3-[(2R,4R)-4-({[1-(2,2-difluoro-1,3-benzodioxol-5-yl)cyclopropyl]carbonyl}amino)-7-methoxy-3,4-dihydro-2H-chromen-2-yl]benzoic acid), read-out: EC50 (with co-corrector)
[6] = CSE-HRP, with co-corrector (2 μM)
[7] = with co-corrector (2 μM of 3-[(2R,4R)-4-({[1-(2,2-difluoro-1,3-benzodioxol-5-yl)cyclopropyl]carbonyl}amino)-7-methoxy-3,4-dihydro-2H-chromen-2-yl]benzoic acid)

T1 sequence (P13569 with tags, fused parts or gaps DEL508-508): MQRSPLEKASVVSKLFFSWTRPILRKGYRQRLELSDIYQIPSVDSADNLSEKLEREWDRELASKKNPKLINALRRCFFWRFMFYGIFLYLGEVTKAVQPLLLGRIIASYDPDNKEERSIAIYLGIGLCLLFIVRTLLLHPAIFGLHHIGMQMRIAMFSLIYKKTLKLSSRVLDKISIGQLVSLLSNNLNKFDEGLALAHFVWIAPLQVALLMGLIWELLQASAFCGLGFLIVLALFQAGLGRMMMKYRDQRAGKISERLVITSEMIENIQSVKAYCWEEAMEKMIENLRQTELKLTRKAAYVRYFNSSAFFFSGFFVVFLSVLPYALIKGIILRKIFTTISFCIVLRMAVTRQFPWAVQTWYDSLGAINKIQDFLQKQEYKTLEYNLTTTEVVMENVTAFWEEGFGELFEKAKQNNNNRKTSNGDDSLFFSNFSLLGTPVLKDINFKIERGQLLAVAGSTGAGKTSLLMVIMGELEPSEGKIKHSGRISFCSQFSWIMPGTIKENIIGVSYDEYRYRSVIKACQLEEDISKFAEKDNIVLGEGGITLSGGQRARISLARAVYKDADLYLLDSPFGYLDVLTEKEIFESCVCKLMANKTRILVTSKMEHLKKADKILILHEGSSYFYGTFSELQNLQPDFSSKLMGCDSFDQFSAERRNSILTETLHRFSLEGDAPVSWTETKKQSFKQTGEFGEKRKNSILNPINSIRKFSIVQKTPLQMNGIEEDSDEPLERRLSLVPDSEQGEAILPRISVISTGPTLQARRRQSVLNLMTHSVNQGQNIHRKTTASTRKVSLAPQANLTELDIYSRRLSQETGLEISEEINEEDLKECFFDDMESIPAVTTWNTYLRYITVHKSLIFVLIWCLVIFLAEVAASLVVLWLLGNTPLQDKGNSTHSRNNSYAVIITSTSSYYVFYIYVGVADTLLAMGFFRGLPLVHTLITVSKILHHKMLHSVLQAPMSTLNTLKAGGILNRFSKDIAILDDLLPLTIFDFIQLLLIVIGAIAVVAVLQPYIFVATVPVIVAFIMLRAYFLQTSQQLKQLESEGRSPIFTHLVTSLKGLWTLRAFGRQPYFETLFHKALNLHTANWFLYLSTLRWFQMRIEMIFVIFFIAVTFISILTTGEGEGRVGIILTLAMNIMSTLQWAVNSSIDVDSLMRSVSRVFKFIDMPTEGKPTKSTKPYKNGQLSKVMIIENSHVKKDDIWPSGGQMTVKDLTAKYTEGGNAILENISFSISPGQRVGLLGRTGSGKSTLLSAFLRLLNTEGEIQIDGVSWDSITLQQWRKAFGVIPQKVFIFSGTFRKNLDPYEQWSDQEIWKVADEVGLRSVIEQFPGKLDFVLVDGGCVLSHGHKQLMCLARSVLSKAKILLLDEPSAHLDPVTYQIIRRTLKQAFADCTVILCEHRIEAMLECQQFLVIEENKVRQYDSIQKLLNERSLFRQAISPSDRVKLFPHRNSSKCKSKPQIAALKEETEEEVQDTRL

| Emax [1] | EC50 [2] | EC50 [3] | Maximum % activity (with co-corrector) (with co-corrector (2 μM)) | EC50 [4] | EC50 [5] | Maximum % activity (with co-corrector) [6] | Emax (CSE-HRP, without co-corrector) | Emax (without co-corrector) | Maximum % activity (with co-corrector) [7] | Structure (SMILES) |
| --- | --- | --- | --- | --- | --- | --- | --- | --- | --- | --- |
| < 100% | 1000 to 10000 nM | 1000 to 10000 nM | ++ (≥150 and <350) | – | – | – | – | – | – | Cc1cc(C(F)(F)F)cc(N[C@H]2[C@H](C(C)(C)C)[C@@H](C(=O)O)N(C(=O)[C@H]3CCCCO3)[C@H]2c2cccnc2N(C)C)n1 [III-216] |
| – | – | – | – | 1000 to 10000 nM | 1000 to 10000 nM | +++ (≥350) | > 200% | – | – | COc1ccc(C(F)(F)F)cc1CN[C@@H]1[C@@H](C(C)(C)C)[C@H](C(=O)O)N(C(=O)C2CCCOC2)[C@@H]1c1ccccc1N(C)C (mixture of isomers) [II-21] |
| – | 1000 to 10000 nM | 1000 to 10000 nM | ++ (≥150 and <350) | – | – | – | – | < 100% | – | COc1ccc(C(F)(F)F)cc1C(C)N[C@@H]1[C@@H](C(C)(C)C)[C@H](C(=O)O)N(C(=O)C2CCCCC2)[C@@H]1c1ccccc1 (mixture of isomers) [Example I-8] |
| – | – | – | – | 1000 to 10000 nM | 1000 to 10000 nM | ++ (≥150 and <350) | < 100% | – | – | COc1ncc(C(F)(F)F)cc1N[C@@H]1[C@@H](C(C)(C)OC)[C@H](C(=O)O)N(C(=O)C2CCCCC2)[C@@H]1c1ccccc1 (racemic) [II-89] |
| – | 1000 to 10000 nM | 1000 to 10000 nM | ++ (≥150 and <350) | – | – | – | – | < 100% | – | CC(C)(C)[C@@H]1[C@@H](NCc2ccccc2OC(F)F)[C@@H](c2ccccn2)N(C(=O)C2CCCCC2)[C@H]1C(=O)O (racemic) [Example I-11] |
| 100 to 200% | 1000 to 10000 nM | 1000 to 10000 nM | – | – | – | – | – | – | ++ (≥150 and <350) | COc1ccc(Cl)cc1CN[C@H]1[C@H](C(C)(C)C)[C@@H](C(=O)O)N(C(=O)OC(C)C)[C@H]1c1cccnc1N(C)C [II-568] |
| < 100% | 1000 to 10000 nM | 1000 to 10000 nM | – | – | – | – | – | – | +++ (≥350) | COc1cccc([C@H]2[C@@H](NCc3cc(C(F)(F)F)ccc3OC)[C@H](C(C)(C)C)[C@@H](C(=O)O)N2C(=O)C2CCCOC2)n1 (mixture of isomers) [III-69] |
| – | < 1000 nM | < 1000 nM | +++ (≥350) | – | – | – | – | > 200% | – | COc1ccc(C(C)(C)C)cc1CN[C@H]1[C@H](C(C)(C)C)[C@@H](C(=O)O)N(C(=O)C2CCCC(F)(F)C2)[C@H]1c1cccnc1N(C)C (single isomer, unassigned) [Example 42, (2S,3S,4S,5S)-3-tert-butyl-4-{[(5-tert-butyl-2-methoxyphenyl)methyl]amino}-1-[(1R*)-3,3-difluorocyclohexane-1-carbonyl]-5-[2-(dimethylamino)pyridin-3-yl]pyrrolidine-2-carboxylic acid] |
| – | 1000 to 10000 nM | < 1000 nM | +++ (≥350) | – | – | – | – | > 200% | – | COc1ncc(C2CC2)cc1CN[C@H]1[C@H](C(C)(C)C)[C@@H](C(=O)O)N(C(=O)[C@@H]2CCCO2)[C@H]1c1ccccc1C(C)C [Example 101, (2S,3S,4S,5S)-3-tert-butyl-4-{[(5-cyclopropyl-2-methoxypyridin-3-yl)methyl]amino}-1-[(2S)-oxolane-2-carbonyl]-5-[2-(propan-2-yl)phenyl]pyrrolidine-2-carboxylic acid] |
| < 100% | 1000 to 10000 nM | 1000 to 10000 nM | – | – | – | – | – | – | ++ (≥150 and <350) | COc1ncc(CN[C@@H]2[C@@H](C(C)(C)C)[C@H](C(=O)O)N(C(=O)C3CCCCC3)[C@@H]2c2ccccc2)c(OC)n1 (racemic) [III-29] |
| – | 1000 to 10000 nM | < 1000 nM | +++ (≥350) | – | – | – | – | > 200% | – | COc1ncc(C2CC2)cc1CN[C@H]1[C@H](C(C)(C)C)[C@@H](C(=O)O)N(C(=O)[C@@H]2CCCCO2)[C@H]1c1ccccc1C(C)C [Example 115, (2S,3S,4S,5S)-3-tert-butyl-4-{[(5-cyclopropyl-2-methoxypyridin-3-yl)methyl]amino}-1-[(2S)-oxane-2-carbonyl]-5-[2-(propan-2-yl)phenyl]pyrrolidine-2-carboxylic acid] |
| – | – | – | – | < 1000 nM | < 1000 nM | +++ (≥350) | > 200% | – | – | COc1ccc(C(C)(C)C)cc1CN[C@H]1[C@H](C(C)(C)C)[C@@H](C(=O)O)N(C(=O)Cc2ccccc2F)[C@H]1c1ccccc1 [II-206] |
| – | 1000 to 10000 nM | 1000 to 10000 nM | +++ (≥350) | – | – | – | – | > 200% | – | COc1cc(C(F)(F)F)ccc1CN[C@@H]1[C@@H](C(C)(C)C)[C@H](C(=O)O)N(C(=O)OC(C)C)[C@@H]1c1cccnc1N(C)C (racemic) [Example I-28] |
| – | 1000 to 10000 nM | < 1000 nM | +++ (≥350) | – | – | – | – | > 200% | – | COc1ccc(C(C)(C)C)cc1CN[C@H]1[C@H](C(C)(C)C)[C@@H](C(=O)O)N(C(=O)[C@@H](Cc2ccccc2)OC)[C@H]1c1ccccc1 [Example 32, (2S,3S,4S,5S)-3-tert-butyl-4-{[(5-tert-butyl-2-methoxyphenyl)methyl]amino}-1-[(2R)-2-methoxy-3-phenylpropanoyl]-5-phenylpyrrolidine-2-carboxylic acid] |
| – | 1000 to 10000 nM | 1000 to 10000 nM | +++ (≥350) | – | – | – | – | 100 to 200% | – | COc1ncc(C2CCC2)cc1CN[C@H]1[C@H](C(C)(C)C)[C@@H](C(=O)O)N(C(=O)[C@@H]2CCCO2)[C@H]1c1ccccc1Cl [Example 103, (2S,3S,4S,5S)-3-tert-butyl-5-(2-chlorophenyl)-4-{[(5-cyclobutyl-2-methoxypyridin-3-yl)methyl]amino}-1-[(2S)-oxolane-2-carbonyl]pyrrolidine-2-carboxylic acid] |
| > 200% | 1000 to 10000 nM | < 1000 nM | – | – | – | – | – | – | +++ (≥350) | COc1ccc(C23CC(C2)C3)cc1CN[C@H]1[C@H](C(C)(C)C)[C@@H](C(=O)O)N(C(=O)C2CCCCC2)[C@H]1c1cccnc1OC [II-486] |
| – | – | – | – | 1000 to 10000 nM | 1000 to 10000 nM | +++ (≥350) | > 200% | – | – | COC(=O)N1CCC[C@H](C(=O)N2[C@H](c3ccccc3)[C@H](Nc3cc(C(F)(F)F)cc(C)n3)[C@@H](C(C)(C)C)[C@@H]2C(=O)O)C1 (racemic) [II-27] |
| < 100% | > 10000 nM | > 10000 nM | – | – | – | – | – | – | + (<150) | COc1cccc([C@@H]2[C@H](Nc3cc(C(F)(F)F)cc(C)n3)[C@@H](C(C)(C)C)[C@H](C(=O)O)N2C(=O)C2CCCCO2)n1 (mixture of isomers) [III-63] |
| < 100% | 1000 to 10000 nM | 1000 to 10000 nM | ++ (≥150 and <350) | – | – | – | – | – | – | Cc1cc(CN[C@H]2[C@H](C(C)(C)C)[C@@H](C(=O)O)N(C(=O)C3CCCCC3)[C@H]2c2ccccc2)cc(C)c1OC(F)F [III-141] |
| > 200% | 1000 to 10000 nM | 1000 to 10000 nM | – | – | – | – | – | – | +++ (≥350) | COc1ccc(C(C)(C)C)cc1CN[C@H]1[C@H](C(C)(C)C)[C@@H](C(=O)O)N(C(=O)[C@H]2CCC[C@H](OC)C2)[C@H]1c1cccnc1N(C)C (relative stereo) [II-448] |
